Source: patent publication US8202554B2, “Extract of the family dioscoreaceae and composition for preventing or treating peripheral neuropathy comprising the same” (priority 2005, dated 2012)

Assays:
[1] = tested on: sciatic nerve of diabetes-induced mouse; assay: Histological comparison of sciatic nerve of diabetes-induced mouse; format: in vivo, alloxan-induced diabetic ICR mice; settings: diabetes-induced mice, compound 10 mg/kg p.o. three times per week, 2 months; toluidine blue, 600x/1200x
Experimental: The therapeutic effect of the compound according to the present invention on the neuropathy was identified by measuring a histological change of the sciatic nerve.
7-week old male ICR mice underwent alimentary abstinence for 18 hours, and then alloxan dissolved in a physiological saline was once injected to them by intraperitoneal injection in an amount of 160 mg/kg to induce diabetes. Mice that maintained their fasting blood sugar to 200 mg/dl or more for one week, that is, diabetes-induced mice were selected and then divided into a control group (n=5), an extract-administered group (n=5), and a compound-administered group (n=3). The control group was […] with 0.2 ml of a solution of dimethylsulfoxide:ethanol (3:1), the extract-administered group was administered with the extract obtained according to Example 1 dissolved in a solution of dimethylsulfoxide:ethanol (3:1) in an amount of 100 mg/kg, and the compound-administered group was administered with the compound of Formula 2 dissolved in a solution of dimethylsulfoxide:ethanol (3:1) in an amount of 10 mg/kg. All groups were treated three times by oral administration per one week, and the entire administration period was 2 months. […]

[2] = tested on: endogenous nerve growth factor; assay: Level of nerve growth factor in mouse serum (ELISA); format: in vivo; settings: normal male ICR mice, 10 mg/kg orally once, after 24 hours
Experimental: The compound of Formula 2 was dissolved in 0.2 ml of a solution of dimethyl-sulfoxide:ethanol (3:1), and then orally administered once to 7-week old male ICR mice (n=7) in an amount of 10 mg/kg. After 24 hours, the amount of an endogenous nerve growth factor was measured by ELISA. As a control group, an ICR mouse was orally administered once with 0.2 ml of the dimethylsulfoxide:ethanol (3:1). Then, the amount of a nerve growth factor in the control group was measured in the same manner as described above.

[3] = tested on: endogenous nerve growth factor; assay: Level of nerve growth factor in sciatic nerve of diabetes-induced mouse (ELISA); format: in vivo, alloxan-induced diabetic ICR mice; settings: diabetes-induced mice, 10 mg/kg P.O three times per week, one month
Experimental: 7-week old male ICR mice underwent alimentary abstinence for 18 hours, and then alloxan dissolved in a physiological saline was once injected to them by intraperitoneal injection in an amount of 160 mg/kg to induce diabetes. Mice that maintained their fasting blood sugar to 200 mg/dl or more for one week, that is, diabetes-induced mice were selected and then divided into a control group (n=5), and a compound-administered group (n=5). The control group was administered with 0.2 ml of a solution of dimethylsulfoxide:ethanol (3:1), and the compound-administered group was administered with the compound of Formula 2 dissolved in a solution of dimethylsulfoxide:ethanol (3:1) in an amount of 10 mg/kg. The all groups were orally administered three times per one week, and the entire administration period was one month. The amount of an endogenous nerve growth factor in the sciatic nerve was measured by ELISA (see FIG. 7)
Accordingly, it is considered that the results shown in FIGS. 5 and 6 result from the nerve protecting function of the nerve growth factor.

[4] = tested on: endogenous nerve growth factor; assay: Level of nerve growth factor in serum of diabetes-induced mouse (ELISA); format: in vivo, alloxan-induced diabetic ICR mice; settings: diabetes-induced mice, compound 10 mg/kg p.o., three times per week, one month
Experimental: An alloxan-induced diabetic mouse was prepared as an animal model having diabetic neuropathy, one of the multiple neuropathies.
7-week old male ICR mice underwent alimentary abstinence for 18 hours, and then alloxan dissolved in a physiological saline was once injected to them by intraperitoneal injection in an amount of 160 mg/kg to induce diabetes. Mice that maintained their fasting blood sugar to 200 mg/dl or more for one week, that is, diabetes-induced mice were selected and then divided into a control group (n=10), an extract-administered group (n=10), and a compound-administered group (n=10). The control group was administered with 0.2 ml of a solution of dimethylsulfoxide:ethanol (3:1), the extract-administered group was administered with the extract obtained according to Example 1 dissolved in a solution of dimethylsulfoxide:ethanol (3:1) in an amount of 100 mg/kg, and the compound-administered group was administered with the compound of Formula 2 dissolved in a solution of dimethylsulfoxide:ethanol (3:1) in an amount of 10 mg/kg. The all groups were orally administered three times per one week, and the entire administration period was one month. The amount of an endogenous nerve growth factor in the serum was measured by ELISA. […]

[5] = tested on: PC 12 cell; assay: Measurement of neurite outgrowth; format: cell-based; settings: PC12 cells, neurite length measured after 48 hours, vs ethanol control
Experimental: In an incubator with conditions including 5% CO2 and a temperature of 37° C., PC 12 cell (pheochromocytoma, ATCC Number: CRL-1721) was cultured in a RPMI 1640 medium supplemented with horse serum (10%, v/v), fetal bovine serum (5%, v/v), and 1% penicillin-streptomycin
In order to find the effect of the compound of Formula 2 on the neurite outgrowth, the mediums supplemented with 2% horse serum, 1% fetal bovine serum, and 1% penicillin-streptomycin were added to each 6-well plate coated with poly-d-lysine and then the PC12 cells were inoculated in 5×10^4 cells each well. After 24 hours, these wells were treated with 10 □/ml of ethanol, 10 □/□ of the compound of Formula 2, and 50 ng/□ of a nerve growth factor (R&D system, USA), respectively. Then, after 48 hours, the length of the neurite was measured using an inverted image contrast microscope (CK-2, Olympus, USA) (See FIG. 1 and FIG. 2)

[6] = tested on: sorbitol in the sciatic nerve; assay: Change in amount of sorbitol in sciatic nerve of diabetes-induced mouse (HPLC); format: in vivo, alloxan-induced diabetic ICR mice; settings: diabetes-induced mice, 10 mg/kg p.o. three times per week, 2 weeks
Experimental: The therapeutic effect of the compound according to the present invention on the neuropathy was identified by measuring a change in the amount of sorbitol in the sciatic nerve.
7-week old male ICR mice underwent alimentary abstinence for 18 hours, and then alloxan dissolved in a physiological saline was once injected to them by intraperitoneal injection in an amount of 160 mg/kg to induce diabetes. Mice that maintained their fasting blood sugar to 200 mg/dl or more for one week, that is, diabetes-induced mice were selected and then divided into a control group (n=3), and a compound-administered group (n=3). The control group was administered with 0.2 ml of a solution of dimethylsulfoxide:ethanol (3:1), and the compound-administered group was administered with the compound of Formula 2 dissolved in a solution of dimethylsulfoxide:ethanol (3:1) in an amount of 10 mg/kg. 7-week old male ICR mice in which diabetes was not induced were grouped as a normal group (n=3), and the normal group was administered with 0.2 ml of a solution of dimethylsulfoxide:ethanol (3:1). […] Administration-completed mice were sacrificed by cervical dislocation, and then the amount of the sorbitol in the sciatic nerve was measured by HPLC (see FIG. 8). […]

[7] = tested on: sciatic nerve of diabetes-induced mouse; assay: Transmission speed of motor nerve and sensory nerve of sciatic nerve in diabetes-induced mouse; format: in vivo, alloxan-induced diabetic ICR mice; settings: diabetes-induced mice, 10 mg/kg p.o. three times per week
Experimental: The therapeutic effect of the compound according to the present invention on the diabetic neuropathy, one of the multiple neuropathies, was identified by measuring the effect of the compound according to the present invention on the transmission speed of the motor nerve and sensory nerve in the sciatic nerve.
7-week old male ICR mice underwent alimentary abstinence for 18 hours, and then alloxan dissolved in a physiological saline was once injected to them by intraperitoneal injection in an amount of 160 mg/kg to induce diabetes. Mice that maintained their fasting blood sugar to 200 mg/dl or more for one week, that is, diabetes-induced mice were selected and then divided into a control group (n=7), and a compound-administered group (n=7). The control group was administered with 0.2 ml of a solution of dimethylsulfoxide:ethanol (3:1), and the compound-administered group was administered with the compound of Formula 2 dissolved in a solution of dimethylsulfoxide:ethanol (3:1) in an amount of 10 mg/kg. 7-week old male ICR mice in which diabetes was not induced were grouped as a normal group (n=7), and the normal group was administered with 0.2 ml of a solution of dimethylsulfoxide:ethanol (3:1). […] Administration-completed mice were sacrificed by cervical dislocation, and then the skin and muscle in the femoral region were quickly removed. Then, left and right sciatic nerves were respectively separated in a length of 20 mm or more and stored in a physiological saline while air flows through the physiological saline. The separated sciatic nerves were placed on a 20 mm round measurement plate. Then, a sensor and a stimulating probe were connected to respective neuroterminals and the electrical conductivity was measured using a digital storage oscilloscope to assess the nerve transmission speed (see FIGS. 5 and 6.)
In general, the myelin is a phospholipid membrane surrounding axons with several layers, and also called as myelin sheath. […]

In the case of `C[C@@H]1CC[C@@]2(OC1)O[C@H]1C[C@H]3[C@@H]4CC=C5C[C@@H](O)CC[C@]5(C)[C@H]4CC[C@]3(C)[C@H]1[C@@H]2C` [compound of Formula 2, 3beta, 25R-spirost-5-en-3-ol], the “histology of axon and myelin in the central part of the sciatic nerve” value [1] is reported as “clearly observed”, the “nerve growth factor in the serum relative to control group” value [2] is reported as “about 2.5 times” and the “nerve growth factor in the sciatic nerve, higher than vehicle control group” value [3] is reported as “about 30%”. The “endogenous nerve growth factor in the serum relative to vehicle control group” value [4] was “four”, the neurite outgrowth ([5]; 10 □/□ of the compound) was “neurite outgrowth was induced” and the “sorbitol in the sciatic nerve, lower than diabetes-induced control group” value [6] was 10%. For the same compound, the “transmission speed of the sensory nerve, higher than diabetes-induced control group” value ([7]; one month) was 25%, the “transmission speed of the motor nerve, higher than control group” value ([7]; two months) was 40% and the “transmission speed of the sensory nerve, higher than control group” value ([7]; two months) was 45%.

In the case of “nerve growth factor: nerve growth factor (R&D system, USA), positive control for neurite outgrowth [reference compound]”, the neurite outgrowth ([5]; 50 ng/□ of nerve growth factor) is reported as “neurite outgrowth was induced”.
